Source: patent US20160009686A1, “VEGFR3 INHIBITORS” (CANCER THERAPEUTICS CRC PTY LIMITED, priority 2012, published 2016)

Tests used:
[1] = biological target: VEGFR3 cytoplasmic domain (Homo sapiens, UniProt P35916); experiment: VEGFR3 Biochemical Assay (AlphaScreen); conditions: GST-fusion enzyme, 500 μM ATP, 90 minutes at 30 degree Celsius (modified form in some cases: Hexa-His-fusion enzyme, 1 μM ATP); read-out: IC50
[2] = biological target: T1, VEGFR2 (Homo sapiens, UniProt P35968); experiment: VEGFR2 Phospho ELISA Assay; assay type: cell-based; conditions: HUVEC, treated for 1 hour, VEGF stimulated; phospho VEGFR2 relative to Total VEGFR2
T1 construct: host or cells: HUVEC
T1 sequence (P35968 20-1356): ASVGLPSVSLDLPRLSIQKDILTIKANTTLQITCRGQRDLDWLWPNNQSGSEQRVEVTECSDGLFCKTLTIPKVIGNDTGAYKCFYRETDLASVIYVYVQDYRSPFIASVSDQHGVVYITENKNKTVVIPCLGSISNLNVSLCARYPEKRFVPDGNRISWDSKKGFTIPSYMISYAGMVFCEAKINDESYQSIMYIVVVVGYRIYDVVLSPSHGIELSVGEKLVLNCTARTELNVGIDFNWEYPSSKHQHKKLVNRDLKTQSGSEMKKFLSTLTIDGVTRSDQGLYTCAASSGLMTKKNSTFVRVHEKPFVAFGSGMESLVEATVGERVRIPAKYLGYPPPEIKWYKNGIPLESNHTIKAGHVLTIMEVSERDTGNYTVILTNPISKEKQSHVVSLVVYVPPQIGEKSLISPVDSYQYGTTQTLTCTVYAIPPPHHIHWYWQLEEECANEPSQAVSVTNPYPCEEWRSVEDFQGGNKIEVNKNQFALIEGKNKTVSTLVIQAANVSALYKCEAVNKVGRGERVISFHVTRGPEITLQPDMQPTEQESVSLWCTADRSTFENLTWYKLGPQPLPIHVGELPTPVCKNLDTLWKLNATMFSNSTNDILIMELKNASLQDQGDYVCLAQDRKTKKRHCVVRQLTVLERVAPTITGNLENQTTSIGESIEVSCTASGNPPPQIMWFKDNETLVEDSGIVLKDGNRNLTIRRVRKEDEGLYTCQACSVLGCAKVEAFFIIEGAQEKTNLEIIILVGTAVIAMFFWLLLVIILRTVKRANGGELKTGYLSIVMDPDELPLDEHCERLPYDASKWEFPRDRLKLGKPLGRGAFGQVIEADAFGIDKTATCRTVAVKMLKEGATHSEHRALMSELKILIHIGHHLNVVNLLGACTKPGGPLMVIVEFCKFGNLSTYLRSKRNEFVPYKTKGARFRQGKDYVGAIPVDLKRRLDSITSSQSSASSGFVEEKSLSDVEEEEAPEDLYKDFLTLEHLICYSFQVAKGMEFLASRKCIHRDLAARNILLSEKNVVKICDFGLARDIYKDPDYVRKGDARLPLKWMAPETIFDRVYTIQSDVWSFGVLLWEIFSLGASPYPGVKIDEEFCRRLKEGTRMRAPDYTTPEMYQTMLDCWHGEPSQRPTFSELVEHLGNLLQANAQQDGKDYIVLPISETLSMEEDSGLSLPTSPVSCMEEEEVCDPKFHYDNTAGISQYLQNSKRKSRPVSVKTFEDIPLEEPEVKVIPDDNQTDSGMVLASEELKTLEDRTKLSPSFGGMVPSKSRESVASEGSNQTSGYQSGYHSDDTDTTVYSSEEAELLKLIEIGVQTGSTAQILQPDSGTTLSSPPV

[3] = biological target: VEGFR3 (Homo sapiens, UniProt P35916); experiment: VEGFR3 Phospho ELISA Assay; assay type: cell-based; conditions: HMVEC-dLyAD cells, treated for 1 hour, VEGFC stimulated; phospho VEGFR3 relative to Total VEGFR3
Chain of VEGFR3 (P35916 25-1363): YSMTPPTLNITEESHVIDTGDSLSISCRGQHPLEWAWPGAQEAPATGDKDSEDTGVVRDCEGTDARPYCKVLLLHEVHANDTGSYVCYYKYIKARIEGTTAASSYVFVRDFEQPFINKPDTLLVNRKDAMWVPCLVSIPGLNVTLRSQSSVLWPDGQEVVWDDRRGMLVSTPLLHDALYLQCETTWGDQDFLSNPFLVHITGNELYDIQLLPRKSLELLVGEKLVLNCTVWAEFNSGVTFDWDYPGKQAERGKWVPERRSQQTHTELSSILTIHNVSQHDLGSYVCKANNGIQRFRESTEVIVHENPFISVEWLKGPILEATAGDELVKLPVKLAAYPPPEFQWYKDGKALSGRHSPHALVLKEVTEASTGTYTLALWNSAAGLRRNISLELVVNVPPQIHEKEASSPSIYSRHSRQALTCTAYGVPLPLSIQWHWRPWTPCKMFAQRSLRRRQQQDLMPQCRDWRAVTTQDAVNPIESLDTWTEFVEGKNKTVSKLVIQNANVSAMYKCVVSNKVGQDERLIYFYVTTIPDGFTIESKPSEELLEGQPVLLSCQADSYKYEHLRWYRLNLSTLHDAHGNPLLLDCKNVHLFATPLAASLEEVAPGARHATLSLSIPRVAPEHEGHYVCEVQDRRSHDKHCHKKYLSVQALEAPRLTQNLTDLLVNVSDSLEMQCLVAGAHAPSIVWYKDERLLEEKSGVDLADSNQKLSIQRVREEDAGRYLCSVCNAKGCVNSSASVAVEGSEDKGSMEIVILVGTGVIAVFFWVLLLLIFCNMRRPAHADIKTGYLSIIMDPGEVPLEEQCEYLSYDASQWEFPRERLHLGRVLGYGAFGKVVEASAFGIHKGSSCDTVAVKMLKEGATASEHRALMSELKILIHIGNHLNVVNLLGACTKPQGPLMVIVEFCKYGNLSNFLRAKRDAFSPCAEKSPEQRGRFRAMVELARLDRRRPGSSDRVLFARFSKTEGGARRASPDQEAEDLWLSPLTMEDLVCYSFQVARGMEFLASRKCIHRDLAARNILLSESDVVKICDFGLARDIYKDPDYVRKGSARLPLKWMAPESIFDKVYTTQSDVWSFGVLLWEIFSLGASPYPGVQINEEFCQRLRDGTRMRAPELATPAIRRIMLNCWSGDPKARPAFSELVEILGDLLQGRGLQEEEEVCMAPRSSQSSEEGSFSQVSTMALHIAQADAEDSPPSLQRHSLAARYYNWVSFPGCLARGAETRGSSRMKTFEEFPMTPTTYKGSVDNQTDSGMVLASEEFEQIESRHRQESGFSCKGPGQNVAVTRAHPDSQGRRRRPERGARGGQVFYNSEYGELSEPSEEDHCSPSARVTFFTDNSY

Chain of VEGFR3 cytoplasmic domain (P35916 798-1298 isoform P35916-1): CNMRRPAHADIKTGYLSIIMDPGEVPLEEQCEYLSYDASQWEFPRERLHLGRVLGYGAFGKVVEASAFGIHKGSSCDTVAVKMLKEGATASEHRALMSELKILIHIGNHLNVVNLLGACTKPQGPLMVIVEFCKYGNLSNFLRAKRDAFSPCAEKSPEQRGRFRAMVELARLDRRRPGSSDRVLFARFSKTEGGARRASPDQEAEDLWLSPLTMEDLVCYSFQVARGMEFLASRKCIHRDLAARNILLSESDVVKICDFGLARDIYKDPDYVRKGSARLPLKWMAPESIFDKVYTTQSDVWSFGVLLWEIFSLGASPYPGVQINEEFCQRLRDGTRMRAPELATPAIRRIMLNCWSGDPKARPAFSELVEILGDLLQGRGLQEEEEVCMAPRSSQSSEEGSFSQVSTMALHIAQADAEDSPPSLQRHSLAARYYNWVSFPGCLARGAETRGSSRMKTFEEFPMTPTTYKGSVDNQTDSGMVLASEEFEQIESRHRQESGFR

| SMILES | IC50 [1] [nM] | IC50 [2] [nM] | IC50 [3] [nM] |
| --- | --- | --- | --- |
| NC(=O)C1(c2ccccc2CCc2nc(Nc3ccc(C(F)(F)F)nc3)ncc2Cl)CC1 [Compound 9, 1-(2-(2-(5-chloro-2-((6-(trifluoromethyl)pyridin-3-yl)amino)pyrimidin-4-yl)ethyl)phenyl)cyclopropanecarboxamide] | 26 | […] | 75 |
| CC(C(N)=O)c1ccccc1CCc1nc(Nc2cnn(C3CCN(C)CC3)c2)ncc1C(F)(F)F (single isomer, unassigned) [Compound 57-1A, 2-(2-(2-(2-((1-(1-Methylpiperidin-4-yl)-1H-pyrazol-4-yl)amino)-5-(trifluoromethyl)pyrimidin-4-yl)ethyl)phenyl)propanamide] | – | 518 | – |
| COc1ccc(Nc2ncc(C(F)(F)F)c(CCc3ccccc3C3(C(N)=O)CC3)n2)cn1 [Compound 64, 1-(2-(2-(2-((6-Methoxypyridin-3-yl)amino)-5-(trifluoromethyl)pyrimidin-4-yl)ethyl)phenyl)cyclopropanecarboxamide] | 8 | – | 394 |
| CC(C(N)=O)c1ccccc1CCc1nc(Nc2cnn(C3CCN(C)CC3)c2)ncc1Cl (centres unmarked) [Compound 44, 2-(2-(2-(5-Chloro-2-(1-(1-methylpiperidin-4-yl)-1H-pyrazol-4-ylamino)pyrimidin-4-yl)ethyl)phenyl)propanamide] | 9 | 138 | 52 |
| CCC(C(N)=O)c1ccccc1CCc1nc(Nc2ccc(C3CCNCC3)cc2)ncc1C(F)(F)F (single isomer, unassigned) [Compound 1-2A, 2-(2-(2-(2-((4-(Piperidin-4-yl)phenyl)amino)-5-(trifluoromethyl)pyrimidin-4-yl)ethyl)phenyl)butanamide] | 75 | – | 315 |
| CN1CCC(n2cc(Nc3ncc(Cl)c(CCc4ccccc4C4(C(N)=O)CC4)n3)cn2)CC1 [Compound 18, 1-(2-(2-(5-chloro-2-((1-(1-methylpiperidin-4-yl)-1H-pyrazol-4-yl)amino)pyrimidin-4-yl)ethyl)phenyl)cyclopropanecarboxamide] | 3 | 21 | 5 |
| CC(C(N)=O)c1ccccc1CCc1nc(Nc2cnn(C)c2)ncc1Cl (centres unmarked) [Compound 36, 2-(2-(2-(5-Chloro-2-(1-methyl-1H-pyrazol-4-ylamino)pyrimidin-4-yl)ethyl)phenyl) propanamide] | 16 | 8170 | 76 |
| Cn1cc(Nc2ncc(Cl)c(CCc3ccccc3C3(C(N)=O)CC3)n2)cn1 [Compound 13, 1-(2-(2-(5-Chloro-2-((1-methyl-1H-pyrazol-4-yl)amino)pyrimidin-4-yl)ethyl)phenyl)cyclopropanecarboxamide] | 4 | – | 9 |
| CC(N)c1ccc(Nc2ncc(Cl)c(CCc3ccccc3C3(C(N)=O)CC3)n2)cc1 (centres unmarked) [Compound 24A, 1-(2-(2-(2-((4-(1-Aminoethyl)phenyl)amino)-5-chloropyrimidin-4-yl)ethyl)phenyl)cyclopropanecarboxamide] | 14 | 209 | – |
| NC(=O)C1(c2ccccc2CCc2nc(Nc3cccnc3)ncc2Cl)CC1 [Compound 6, 1-(2-(2-(5-chloro-2-(pyridin-3-ylamino)pyrimidin-4-yl)ethyl)phenyl)cyclopropanecarboxamide] | 8 | 6610 | 17 |
| NC(=O)C1(c2ccccc2CCc2nc(Nc3cnn(C4CCNC4)c3)ncc2Cl)CC1 (centres unmarked) [Compound 20, 1-(2-(2-(5-Chloro-2-(1-(pyrrolidin-3-yl)-1H-pyrazol-4-ylamino)pyrimidin-4-yl)ethyl)phenyl)cyclopropanecarboxamide] | 7 | 1760 | 38 |
| NC(=O)C1(c2ccccc2CCc2nc(Nc3ccc(C4CCNCC4)cc3)ncc2Cl)CC1 [Compound 7, 1-(2-(2-(5-chloro-2-((4-(piperidin-4-yl)phenyl)amino)pyrimidin-4-yl)ethyl)phenyl)cyclopropanecarboxamide] | 10 | – | 38 |
| NC(=O)C1(c2ccccc2CCc2nc(Nc3ccc(C4CCNCC4)cc3)ncc2C(F)(F)F)CC1 [Compound 2, 1-(2-(2-(2-((4-(Piperidin-4-yl)phenyl)amino)-5-(trifluoromethyl)pyrimidin-4-yl)ethyl)phenyl)cyclopropanecarboxamide] | 10 | 283 | 26 |
| CN1CCC(c2ccc(Nc3ncc(C(F)(F)F)c(CCc4ccccc4C4(C(N)=O)CC4)n3)cc2)CC1 [Compound 3, 1-(2-(2-(2-((4-(1-methylpiperidin-4-yl)phenyl)amino)-5-(trifluoromethyl)pyrimidin-4-yl)ethyl)phenyl)cyclopropanecarboxamide] | 9 | 1790 | 27 |
| CC(C(N)=O)c1ccccc1CCc1nc(Nc2cn[nH]c2)ncc1Cl (centres unmarked) [Compound 35, 2-(2-(2-(2-(1H-Pyrazol-4-ylamino)-5-chloropyrimidin-4-yl)ethyl)phenyl)propanamide] | 9 | 3790 | 64 |
| Cn1cc(Nc2ncc(Cl)c(CCc3ccccc3C(C)(C)C(N)=O)n2)cn1 [Compound 45, 2-(2-(2-(5-Chloro-2-((1-methyl-1H-pyrazol-4-yl)amino)pyrimidin-4-yl)ethyl)phenyl)-2-methylpropanamide] | 3 | 370 | 23 |
| NC(=O)C1(c2ccccc2CCc2nc(Nc3ccc(C4CCNCC4)nc3)ncc2C(F)(F)F)CC1 [Compound 5, 1-(2-(2-(2-((6-(Piperidin-4-yl)pyridin-3-yl)amino)-5-(trifluoromethyl)pyrimidin-4-yl)ethyl)phenyl)cyclopropanecarboxamide] | 28 | 4080 | 51 |
| NC(=O)C1(c2ccccc2CCc2nc(Nc3cnn(C4CNC4)c3)ncc2Cl)CC1 [Compound 14, 1-(2-(2-(2-((1-(Azetidin-3-yl)-1H-pyrazol-4-yl)amino)-5-chloropyrimidin-4-yl)ethyl)phenyl)cyclopropanecarboxamide] | 6 | 357 | 30 |
| CN1CCC(n2cc(Nc3ncc(Cl)c(CCc4ccccc4C4(C(N)=O)CC4)n3)cn2)C1 (centres unmarked) [Compound 21, 1-(2-(2-(5-Chloro-2-(1-(1-methylpyrrolidin-3-yl)-1H-pyrazol-4-ylamino)pyrimidin-4-yl)ethyl)phenyl)cyclopropanecarboxamide] | 7 | 73 | 14 |
| Cc1cnc(Nc2cnn(C)c2)nc1CCc1ccccc1C(C)C(N)=O (centres unmarked) [Compound 51, 2-(2-(2-(5-Methyl-2-((1-methyl-1H-pyrazol-4-yl)amino)pyrimidin-4-yl)ethyl)phenyl)propanamide] | 15 | – | 526 |
| CN1CCC(c2ccc(Nc3ncc(Cl)c(CCc4ccccc4C4(C(N)=O)CC4)n3)cc2)CC1 [Compound 8, 1-(2-(2-(5-chloro-2-((4-(1-methylpiperidin-4-yl)phenyl)amino)pyrimidin-4-yl)ethyl)phenyl)cyclopropanecarboxamide] | 10 | 897 | 19 |
| NC(=O)C1(c2ccccc2CCc2nc(Nc3ccc(C4CCNCC4)nc3)ncc2Cl)CC1 [Compound 15, 1-(2-(2-(5-Chloro-2-((6-(piperidin-4-yl)pyridin-3-yl)amino)pyrimidin-4-yl)ethyl)phenyl)cyclopropanecarboxamide] | 11 | 2000 | 51 |
| CC(NC(=O)OC(C)(C)C)c1ccc(Nc2ncc(Cl)c(CCc3ccccc3C3(C(N)=O)CC3)n2)cc1 (centres unmarked) [Compound 24, tert-Butyl (1-(4-((4-(2-(1-carbamoylcyclopropyl)phenethyl)-5-chloropyrimidin-2-yl)amino)phenyl)ethyl)carbamate] | 2 | – | 25 |
| CCC(C(N)=O)c1ccccc1CCc1nc(Nc2ccc(C3CCNCC3)cc2)ncc1C(F)(F)F (single isomer, unassigned) [Compound 1-1A, 2-(2-(2-(2-((4-(Piperidin-4-yl)phenyl)amino)-5-(trifluoromethyl)pyrimidin-4-yl)ethyl)phenyl)butanamide] | 103 | – | 329 |
| Cn1ccc(Nc2ncc(Cl)c(CCc3ccccc3C3(C(N)=O)CC3)n2)n1 [Compound 28, 1-(2-(2-(5-Chloro-2-((1-methyl-1H-pyrazol-3-yl)amino)pyrimidin-4-yl)ethyl)phenyl)cyclopropanecarboxamide] | 268 | – | – |
| CC(C(N)=O)c1ccccc1CCc1nc(Nc2cccnc2)ncc1Cl (centres unmarked) [Compound 39, 2-(2-(2-(5-Chloro-2-(pyridin-3-ylamino)pyrimidin-4-yl)ethyl)phenyl) propanamide] | 44 | – | – |
| NC(=O)C1(c2ccccc2CCc2nc(Nc3cnn(C(F)F)c3)ncc2Cl)CC1 [Compound 34, 1-(2-(2-(5-Chloro-2-((1-(difluoromethyl)-1H-pyrazol-4-yl)amino)pyrimidin-4-yl)ethyl)phenyl)cyclopropanecarboxamide] | 7 | – | – |
| Cc1cnc(Nc2cnn(C)c2)nc1CCc1ccccc1C(C)C(N)=O (single isomer, unassigned) [Compound 51-1A, 2-(2-(2-(5-methyl-2-((1-methyl-1H-pyrazol-4-yl)amino)pyrimidin-4-yl)ethyl)phenyl)propanamide] | 25 | – | – |
| Cc1cc(Nc2ncc(Cl)c(CCc3ccccc3C3(C(N)=O)CC3)n2)n[nH]1 [Compound 27, 1-(2-(2-(5-Chloro-2-((5-methyl-1H-pyrazol-3-yl)amino)pyrimidin-4-yl)ethyl)phenyl)cyclopropanecarboxamide] | 47 | – | – |
| NC(=O)C1(c2ccccc2CCc2nc(Nc3cnn(CCO)c3)ncc2Cl)CC1 [Compound 76] | 4 | – | – |
